The text below walks through data of PMC7565984, “A Phosphorylation-Induced Switch in the Nuclear Localization Sequence of the Intrinsically Disordered NUPR1 Hampers Binding to Importin” (Biomolecules, 2020).

Where a SMILES comes first, the peptide text is derived from it.

In series [1] the target is T1, ΔImpα3 (importin α3 without the IBB domain, residues 64-521) (Homo sapiens, UniProt O00629).
T1 construct: The His-tagged ΔImpα3 (residues 64-521) was obtained from BL21 (DE3) cells as described; His-tag; made in house; host or cells: Escherichia coli BL21 (DE3)
T1 sequence (O00629 64-521): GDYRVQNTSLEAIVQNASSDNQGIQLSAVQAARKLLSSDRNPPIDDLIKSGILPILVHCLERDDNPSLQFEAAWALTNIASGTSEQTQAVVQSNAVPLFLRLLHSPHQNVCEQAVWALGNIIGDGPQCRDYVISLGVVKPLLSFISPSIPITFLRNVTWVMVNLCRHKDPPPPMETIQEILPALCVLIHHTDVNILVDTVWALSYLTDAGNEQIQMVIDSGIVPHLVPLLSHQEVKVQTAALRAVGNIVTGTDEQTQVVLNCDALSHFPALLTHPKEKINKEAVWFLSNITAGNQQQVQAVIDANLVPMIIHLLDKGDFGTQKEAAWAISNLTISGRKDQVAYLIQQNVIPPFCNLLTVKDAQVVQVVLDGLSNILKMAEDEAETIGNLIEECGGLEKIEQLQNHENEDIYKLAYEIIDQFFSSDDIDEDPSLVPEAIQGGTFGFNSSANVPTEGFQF
Nature of the series: ITC binding of NLS-NUPR1 peptides / NUPR1 to ΔImpα3. On the procedure:
(§1) The experimental set-up and data processing of ITC experiments has been described previously. Calorimetric titrations, performed in an Auto-iTC200 calorimeter (MicroCal, Malvern-Panalytical, Malvern, UK) consisted of series of 19 2-μL injections, with 150 s time spacing and a 750-rpm stirring speed. Impα3 or ΔImpα3 (at 10–20 μM) was loaded into the calorimetric cell and NLS-NUPR1 peptides in the syringe (150–300 μM); all solutions were prepared in buffer Tris 50 mM, pH 8. […] The binding affinity (association constant) and the binding enthalpy were estimated through a least-squares nonlinear regression data analysis, from which the Gibbs energy and the entropic contribution to the binding were calculated using well-known thermodynamic relationships. Since the binding stoichiometry is constrained by the model, the parameter n provides a fraction of the active or binding competent protein. Experiments for each peptide and importin species were performed, at least, in duplicates.

The nature of series [2]: Translational diffusion by NMR DOSY (hydrodynamic properties). The format is physicochemical. Here is the method: Concentrations of peptides in all DOSY experiments were 120 μM, and 128 scans, where the gradient strength was varied, were acquired for each curve. Translational self-diffusion measurements were performed with the pulsed gradient spin-echo sequence in the presence of 100% D2O. Experimental details have been described elsewhere. Briefly, the gradient strength was varied in sixteen linear steps between 2% and 95% of the total power of the gradient coil. The gradient strength was previously calibrated by using the value of the translational diffusion coefficient, D, for the residual proton water line in a sample containing 100% D2O in a 5-mm tube [34]. In our experiments for each peptide, the duration of the gradient was 2.25 ms, the time between the two pulse gradients in the pulse sequence was set to 200 ms, and the recovery delay between the bipolar gradients was set to 100 μs. The methyl groups with signals between 1.0 and 0.80 ppm were used for integration. Fitting of the exponential curves obtained from experimental data was carried out with KaleidaGraph (Synergy Software, Version 3.5), as described. A final concentration of 1% of dioxane, which was assumed to have a hydrodynamic radius Rh = 2.12 Å [34], was added to the solutions of each of the peptides to have a comparison for estimating their sizes.

Series [3] concerns the target T2, human importin α3 (Impα3) (Homo sapiens, UniProt O00629).
T2 construct: although the IBB region maintains its independence within the whole Impα3 in terms of conformation; His-tag (N); made in house; host or cells: Escherichia coli BL21 (DE3)
T2 sequence (O00629 1-521): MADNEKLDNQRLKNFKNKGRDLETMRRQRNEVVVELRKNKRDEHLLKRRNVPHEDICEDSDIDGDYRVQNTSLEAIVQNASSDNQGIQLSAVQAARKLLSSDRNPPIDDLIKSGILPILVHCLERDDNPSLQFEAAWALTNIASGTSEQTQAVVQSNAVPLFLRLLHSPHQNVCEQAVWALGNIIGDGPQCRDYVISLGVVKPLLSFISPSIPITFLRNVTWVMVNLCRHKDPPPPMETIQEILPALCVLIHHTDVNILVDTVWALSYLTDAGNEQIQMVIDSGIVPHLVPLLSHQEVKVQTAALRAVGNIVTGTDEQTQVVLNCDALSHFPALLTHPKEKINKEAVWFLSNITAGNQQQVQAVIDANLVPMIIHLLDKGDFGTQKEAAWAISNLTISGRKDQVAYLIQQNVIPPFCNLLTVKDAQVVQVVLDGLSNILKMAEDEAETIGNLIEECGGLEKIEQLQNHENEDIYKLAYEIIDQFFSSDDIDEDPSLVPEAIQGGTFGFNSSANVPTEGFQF
The experiment in a line: ITC binding of NLS-NUPR1 peptides / NUPR1 to Impα3. On the procedure:
as §1

In series [4] the target is T2, human importin α3 (Impα3). The following applies: ITC, shown in Figure S4 for comparison; previously measured; read-out: Kd (dissociation constant) of intact NUPR1 for Impα3; cited from earlier work. The source says: Furthermore, we tried to dissect the affinity of the NLS region of NUPR1 for Impα3 by using a “divide and conquer” approach with the peptides comprising the region. The interaction between full-length NUPR1 and its mutants with Impα3 and ΔImpα3 was the focus of this study, but instead, we emplo ... || In this work, we tried first to find out whether the theoretically predicted NLS region of NUPR1 was capable of binding in isolation to Impα3. Second, we tried to elucidate, for the first time, the molecular bases behind the binding of an NLS region of an IDP to an importin. […] These findings allow us to draw several conclusions. […] However, t ...

The target in series [5] is T3, truncated importin α3 without the IBB domain (residues 64-521) (human, UniProt O00629 64-521).
T3 construct: human importin α3 (KPNA4) without the IBB domain, residues 64-521; also called ΔImpα3; ΔImportin
T3 sequence (looked up): T1 sequence (O00629 64-521)
The experiment in a line: ITC; intact NUPR1 with ΔImpα3; conditions of this titration are not told (Figure S4). The following applies: both partners purified. Background: Isothermal titration calorimetry measures the heat released or taken up as one component is titrated into another.

Setting [6] is: ITC, 298 K, Tris 50 mM pH 8, absolute error 0.5 kcal/mol.
Where [7] appears, read: ITC, 298 K, Tris 50 mM pH 8, calculated from Kd and ΔH, absolute error 0.7 kcal/mol.

Turning to `CC(=O)N[C@@H](Cc1ccc(O)cc1)C(=O)N[C@H](C(=O)N[C@@H](CC(N)=O)C(=O)N[C@@H](CCCNC(=N)N)C(=O)N1CCC[C@H]1C(=O)N[C@@H](CO)C(=O)N1CCC[C@H]1C(=O)NCC(=O)NCC(=O)N[C@@H](Cc1c[nH]cn1)C(=O)N[C@@H](CCC(=O)O)C(=O)N[C@@H](CCCNC(=N)N)C(=O)N[C@@H](CCCCN)C(=O)N[C@@H](CC(C)C)C(=O)N[C@H](C(=O)N[C@H](C(=O)N[C@@H](CCCCN)C(=O)N[C@@H](CC(C)C)C(=O)N[C@@H](CCC(N)=O)C(=O)N[C@@H](CC(N)=O)C(=O)N[C@@H](CO)C(=O)N[C@@H](CCC(=O)O)C(N)=O)[C@@H](C)O)C(C)C)[C@@H](C)O` [wt] (Ac-YTNRPSPGGHERKLVTKLQNSE-NH2), the “ΔH (binding enthalpy), ΔImpα3” value in series [1] (setting [6]) is -3.7 kcal/mol. Further, the “−TΔS (entropic contribution), ΔImpα3” value in series [1] (setting [7]) is -4.5 kcal/mol. In addition, the “Experimental binding free energy, ΔImpα3” value in series [1] (from ITC, Table 2, 298 K) was -8.22 kcal/mol. In addition, the “D, translational diffusion coefficient” value in series [2] (283 K, pH 7.2, 50-mM deuterated Tris, 100% D2O, peptide 120 μM) came out at 1.85 ± 0.04 cm^2 s^−1 × 10^6. In addition, the “Rh, hydrodynamic radius from D” value in series [2] (from the translational diffusion coefficient of dioxane (Rh = 2.12 Å) added to each sample) was found to be 11 ± 1 Å. Moreover, the “ΔH (binding enthalpy), Impα3” value in series [3] (setting [6]) is recorded as 0.8 kcal/mol. Also, the “−TΔS (entropic contribution), Impα3” value in series [3] (setting [7]) is -8.7 kcal/mol. Further, the “Experimental binding free energy, Impα3” value in series [3] (from ITC, Table 2, 298 K) was -7.87 kcal/mol.

B1: intact NUPR1 (full-length, 82 residues) (natural protein, UniProt O60356 1-82, looked up)
chain: MATFPPATSAPQQPPGPEDEDSSLDESDLYSLAHSYLGGGGRKGRTKREAAANTNRPSPGGHERKLVTKLQNSERKKRGARR
notes: NUPR1, UniProtKB O60356, 82 residues long (8 kDa), intact protein; also called full-length NUPR1; nuclear protein 1
As usually defined, the Kd is a measure of binding affinity in units of concentration. For the molecule B1, the dissociation constant (Kd) was 1400 nM in series [4]; 440 nM in series [1] (ITC, 298 K, Tris 50 mM pH 8, importin 10–20 μM in cell, peptide 150–300 μM in syringe, 1:1 model, at least duplicates, relative error 30%, read-out: Kd (dissociation constant), ΔImpα3); 400 nM in series [5].
